Results reported in article PMC8264935 (ACS Omega, 2021).

System: CbTA (ω-transaminase from Chloroflexi bacterium)
Assay: HPLC initial rate, Michaelis-Menten nonlinear fit
Type: biochemical, Chloroflexota bacterium
Conditions: 0.02 mM PLP, glycine-NaOH pH 8.5, 45 °C

| Km (20 mM pyruvate co-substrate) | Km (20 mM (R)-MBA co-substrate) | Compound |
| --- | --- | --- |
| 14.7 mM | – | C[C@@H](N)c1ccccc1 [(R)-MBA] |
| – | 2.83 mM | CC(=O)C(=O)O [C1, pyruvate] |
